Results as given in patent US20070258970A1, “Methods for Inhibiting Hiv and Other Viral Infections by Modulating Ceramide Metabolism” (priority 2003, published 2007).

Assays:
[1] = tested on: ceramide; experiment: Ceramide quantitation by [3H]sphingosine incorporation in HeLa-derived target cells; assay type: cell-based
[2] = tested on: CXCR4; experiment: Flow cytometry of cell surface CXCR4 on TMZ cells; assay type: cell-based; conditions: 2 μM
Method: (§1) TMZ cells, harvested with trypsin-EDTA in PBS, were centrifuged at 450×g and resuspended at 10^6 cells/ml in PBS-5% FBS-5% normal mouse serum. After incubation for 15 min at room temperature, the cells were washed twice in PBS-0.1% bovine serum albumin and resuspended in 100 μl of PBS-5% FBS-5% normal mouse serum. 20 μl of Phycoerythrin (PE)-conjugated mouse immunoglobulin G (IgG) anti-CD4, PE-conjugated mouse IgG anti-CXCR4, or PE-conjugated mouse IgG anti-CCR5, from Becton Dickenson (San Jose, Calif.) was then added to each sample. Cells were incubated at 4° C. for 1 hour and washed twice in PBS-0.1% BSA. Samples were fixed in PBS-1% paraformaldehyde and resuspended in 1 ml of PBS to be read by a FACScalibur instrument (Becton Dickinson, San Jose, Calif.) at 10,000 events/sample with respect to unlabeled cells.
(§2) Increasing ceramide concentrations is thought to perturb membrane properties due to the hydrophobic nature of this lipid and the tendency to self aggregate. The possible consequences of membrane altering properties on the cell surface expression of the main HIV receptors, CD4, X4 and R5, was investigated. […] CD4 expression decreases in a dose dependent manner from a control level of 100% to levels of 70%, 57% and 27% following treatment with 2, 5 and 10 μM of a 4-HPR compound respectively.

[3] = tested on: HIV-1; experiment: HIV-1 infection of primary monocyte derived macrophages; assay type: cell-based; conditions: low uM concentrations, pretreated 2 days
[4] = tested on: cells; experiment: Apoptotic effects on the cells by annexin 5 staining / toxicity; assay type: cell-based; conditions: at the low concentrations that inhibit HIV-1
[5] = tested on: HIV-1; assay type: cell-based
[6] = tested on: VSV pseudotyped HIV-1; assay type: cell-based
[7] = tested on: CD4; experiment: Flow cytometry of cell surface CD4 on TMZ cells; assay type: cell-based
Method: as §1, §2

[8] = tested on: ceramide; experiment: Ceramide level in monocyte derived macrophages; conditions: 5 uM
[9] = tested on: Sendai virus; experiment: R18 fluorescence dequenching viral fusion assay; conditions: increasing concentrations, 37° C., pH7; FIG. 9
Method: To further probe how ceramide accumulation might inhibit viral fusion, viral fusion was monitored using a well-established octadecyl rhodamine (R18) fluorescence dequenching (R18-fdq) assay. In this assay system R18-labeled Sendai virus was incubated with control or a 4-HPR compound treated cells for 30 min at 4° C. to allow for virus binding. Small aliquots of virus-cell complexes were added to a stirred cuvette at 37° C. containing 2 ml buffer at pH7. Fluorescence increases were recorded with a 1 sec time resolution in a SLM8000 spectrofluorimeter (SLMInstruments, Urbana, Ill.). […] This increase in fluorescence reflects dequenching of R18 upon the merging of viral and cell membranes.

[10] = tested on: HIV-1 gp160 (HXB2); experiment: Cell-cell fusion assay (HeLa cells expressing HIV-1 gp160 with TMZ target cells, luciferase); conditions: pretreated target cells, alone or combined; FIG. 8B
Method: Target TMZ cells were plated at 0.75×10^4 cells per well in a 96 well plate and treated with a 4-BPR compound for 48 hours with 5% CO2 in a humidified incubator. HeLa cells expressing HUV-1 gp160 (HXB2) in addition to gag, tat, rev and nef were then cocultured with target cells containing the tat inducible luciferase reporter cassette. Envelope and target cells were cocultivated at 37° C. for 7 hours. Luciferase activity was then measured using a Promega (Madison, Wis.) luciferase assay system kit. Briefly, the supernatants were removed and the cells were lysed with Steady Glo luciferase assay system. The light intensity of each well was measured on a Reporter luminometer. Mock-infected cells were used to determine background luminescence. All infectivity assays were performed in duplicate.
Briefly, HeLa cells expressing HIV-1 gp160 (HXB2) in addition to gag, tat, rev and nef were cocultured with CD4 positive target cells containing the tat inducible luciferase reporter cassette. […] Envelope and target cells were cocultivated at 37° C. for 7 hours following which the cells were lysed and luciferase activity quantitated.

[11] = tested on: CCR5; experiment: Flow cytometry of cell surface CCR5 on TMZ cells; assay type: cell-based
Method: as §1, §2

## CC1=C(/C=C/C(C)=C/C=C/C(C)=C/C(=O)Nc2ccc(O)cc2)C(C)(C)CCC1 [4-HPR compound, N-(4-hydroxyphenyl)retinamide]
[1]; HeLa cells, 5 uM
  increase in ceramide: 1.7 fold
[2]
  CXCR4 expression: 18%
[3]; FIG. 6A
  HIV-1 infection of macrophages, CCR5 tropic isolate (BaL): Infection inhibition was observed
[3]; FIG. 6B
  HIV-1 infection of macrophages, primary isolate: Infection inhibition was observed
[4]
  toxicity: minimal toxicity
[5]; X4 (NL4-3, MN), R5 (Bal, JRCSF) and primary isolates, FIG. 3b
  inhibition of HIV-1 isolates: dose-dependent inhibition
[6]
  infectivity of VSV pseudotyped HIV-1: not impaired
[7]; 2 μM
  CD4 expression (control level 100%): 70%
[7]; 5 μM
  CD4 expression (control level 100%): 57%
[7]; 10 μM
  CD4 expression (control level 100%): 27%
[8]
  increase in ceramide: 1.12 fold
[9]
  inhibition of Sendai virus fusion (R18 fluorescence dequenching): dose dependent inhibition
[10]
  inhibition of fusion: 20%
[11]; 2 μM
  CCR5 expression: 60%
[11]; 5 μM
  CCR5 expression: 30%
[11]; 10 μM
  CCR5 expression: 7%

## CCCCCCCCCCCCC/C=C/[C@@H](O)[C@H](CO)NC(=O)CCCCCCCCCCCCCCC [C16, C16 ceramide]
[5]; pretreatment with 1 μM lipid for 10 minutes at 37° C., FIG. 5
  inhibition of HIV infection: approximately 60%

## sphingomyelinase
[1]; sphingomyelinase pretreated cells
  ceramide levels following enzymatic activity: increased
[5]
  inhibition of HIV-1 infection: 60-70%

## CCCCCCCCCCCCCCCC(=O)NC(CN1CCOCC1)C(O)c1ccccc1 (centres unmarked) [PPMP, 1-phenyl-2-hexadecanoylamino-3-morpholino-1-propanol]
[10]
  inhibition of fusion: ineffective
